# From patent US20260232767A1, “INTERLEUKIN-23 RECEPTOR ANTAGONIST PEPTIDES FOR USE IN THE TREATMENT OF PSORIASIS” (Janssen Pharmaceutica NV, priority 2023, published 2026)
# Test system: subjects with moderate-to-severe plaque psoriasis
# Experiment: Safety, adverse events, Example 2 through Week 56
# Assay type: in vivo, human
# Text: The LTE safety analysis was based on randomized participants in Example who entered the present long-term extension study and received at least one dose of study intervention (including a partial dose) during the study period.
# [1] = 100 mg QD, Week 16 through Week 56
# [2] = 100 mg QD, LTE Safety analysis set
compound,measurement,setting,value
"CC(=O)NCCCC[C@@H]1NC(=O)[C@H](Cc2c[nH]c3c(C)cccc23)NC(=O)[C@H]([C@@H](C)O)NC(=O)[C@H](CC(N)=O)NC(=O)[C@@H](NC(C)=O)C(C)(C)SSC(C)(C)[C@@H](C(=O)N[C@@H](Cc2ccc(OCCN)cc2)C(=O)N[C@@H](Cc2ccc3ccccc3c2)C(=O)NC2(C(=O)N[C@@H](CCC(=O)O)C(=O)N[C@@H](CC(N)=O)C(=O)N[C@@H](Cc3cccnc3)C(=O)N(C)CC(N)=O)CCOCC2)NC1=O [IL-23 receptor antagonist peptide, Ac-[Pen]*-N-T-[W(7-Me)]-[Lys(Ac)]-[Pen]*-Phe[4-(2-aminoethoxy)]-[2-Nal]-[THP]-E-N-[3-Pal]-Sarc-NH2 (*[Pen]-[Pen]* formdisulfidebond)]",Rhinorrhoea: % of subjects,"100 mg BID, through Week 56",(2.4%)
same,Rhinorrhoea: number of subjects,"100 mg BID, through Week 56",1
same,Seasonal allergy: % of subjects,"100 mg BID, through Week 56",(2.4%)
same,Seasonal allergy: number of subjects,"100 mg BID, through Week 56",1
same,Skin and subcutaneous tissue disorders: % of subjects,"100 mg BID, through Week 56",(7.1%)
same,Skin and subcutaneous tissue disorders: number of subjects,"100 mg BID, through Week 56",3
same,Skin laceration: number of subjects,"100 mg BID, through Week 56",0
same,Skin papilloma: % of subjects,"100 mg BID, through Week 56",(2.4%)
same,Skin papilloma: number of subjects,"100 mg BID, through Week 56",1
same,Social circumstances: number of subjects,"100 mg BID, through Week 56",0
same,Steatohepatitis: number of subjects,"100 mg BID, through Week 56",0
same,Subjects with AE leading to discontinuation: Abdominal pain,"100 mg BID, through Week 56",0
same,Subjects with AE leading to discontinuation: Alanine aminotransferase increased,"100 mg BID, through Week 56",0
same,Subjects with AE leading to discontinuation: Aspartate aminotransferase increased,"100 mg BID, through Week 56",0
same,Subjects with AE leading to discontinuation: Asthenia,"100 mg BID, through Week 56",0
same,Subjects with AE leading to discontinuation: Chills,"100 mg BID, through Week 56",0
same,Subjects with AE leading to discontinuation: Ear and labyrinth disorders,"100 mg BID, through Week 56",0
same,Subjects with AE leading to discontinuation: Gamma-glutamyltransferase increased,"100 mg BID, through Week 56",0
same,Subjects with AE leading to discontinuation: General disorders and administration site conditions,"100 mg BID, through Week 56",0
same,Subjects with AE leading to discontinuation: Headache,"100 mg BID, through Week 56",0
same,Subjects with AE leading to discontinuation: Insomnia,"100 mg BID, through Week 56",0
same,Subjects with AE leading to discontinuation: Investigations,"100 mg BID, through Week 56",0
same,Subjects with AE leading to discontinuation: Nausea,"100 mg BID, through Week 56",0
same,Subjects with AE leading to discontinuation: Nervous system disorders,"100 mg BID, through Week 56",0
same,Subjects with AE leading to discontinuation: Proctalgia,"100 mg BID, through Week 56",0
same,Subjects with AE leading to discontinuation: Psoriasis,"100 mg BID, through Week 56",0
same,Subjects with AE leading to discontinuation: Psychiatric disorders,"100 mg BID, through Week 56",0
same,Subjects with AE leading to discontinuation: Skin and subcutaneous tissue disorders,"100 mg BID, through Week 56",0
same,Subjects with AE leading to discontinuation: Suicide attempt,"100 mg BID, through Week 56",0
same,Subjects with AE leading to discontinuation: Transaminases increased,"100 mg BID, through Week 56",0
same,Subjects with AE leading to discontinuation: Vertigo,"100 mg BID, through Week 56",0
same,Subjects with AE leading to discontinuation: Vomiting,"100 mg BID, through Week 56",0
same,Subjects with AE leading to discontinuation: Weight increased,"100 mg BID, through Week 56",0
same,Subjects with treatment-emergent AE: Bronchitis,"100 mg BID, through Week 56",0
same,Subjects with treatment-emergent AE: Gastrointestinal disorders,"100 mg BID, through Week 56",7
same,Subjects with treatment-emergent AE: Nasopharyngitis,"100 mg BID, through Week 56",5
same,Subjects with treatment-emergent serious AE: COVID-19,"100 mg BID, through Week 56",0
same,Subjects with treatment-emergent serious AE: Cardiac disorders,"100 mg BID, through Week 56",0
same,Subjects with treatment-emergent serious AE: Cerebrovascular accident,"100 mg BID, through Week 56",0
same,Subjects with treatment-emergent serious AE: Coronary artery disease,"100 mg BID, through Week 56",0
same,Subjects with treatment-emergent serious AE: Diverticulitis,"100 mg BID, through Week 56",0
same,Subjects with treatment-emergent serious AE: Foot deformity,"100 mg BID, through Week 56",0
same,Subjects with treatment-emergent serious AE: General disorders and administration site conditions,"100 mg BID, through Week 56",0
same,Subjects with treatment-emergent serious AE: Infected cyst,"100 mg BID, through Week 56",0
same,Subjects with treatment-emergent serious AE: Infections and infestations,"100 mg BID, through Week 56",0
same,"Subjects with treatment-emergent serious AE: Injury, poisoning and procedural complications","100 mg BID, through Week 56",0
same,Subjects with treatment-emergent serious AE: Intervertebral disc protrusion,"100 mg BID, through Week 56",0
same,Subjects with treatment-emergent serious AE: Ligament injury,"100 mg BID, through Week 56",0
same,Subjects with treatment-emergent serious AE: Musculoskeletal and connective tissue disorders,"100 mg BID, through Week 56",0
same,Subjects with treatment-emergent serious AE: Nervous system disorders,"100 mg BID, through Week 56",0
same,Subjects with treatment-emergent serious AE: Non-cardiac chest pain,"100 mg BID, through Week 56",0
same,Subjects with treatment-emergent serious AE: Psychiatric disorders,"100 mg BID, through Week 56",0
same,"Subjects with treatment-emergent serious AE: Respiratory, thoracic and mediastinal disorders","100 mg BID, through Week 56",0
same,Subjects with treatment-emergent serious AE: Suicide attempt,"100 mg BID, through Week 56",0
same,Subjects with treatment-emergent serious AE: Tonsillar hypertrophy,"100 mg BID, through Week 56",0
same,Subjects with treatment-emergent serious AE: Ventricular dysfunction,"100 mg BID, through Week 56",0
same,Suicide attempt: number of subjects,"100 mg BID, through Week 56",0
same,Sunburn: number of subjects,"100 mg BID, through Week 56",0
same,Thrombocytopenia: number of subjects,"100 mg BID, through Week 56",0
same,Thrombocytosis: % of subjects,"100 mg BID, through Week 56",(2.4%)
same,Thrombocytosis: number of subjects,"100 mg BID, through Week 56",1
same,Tonsillar hypertrophy: number of subjects,"100 mg BID, through Week 56",0
same,Tooth fracture: % of subjects,"100 mg BID, through Week 56",(2.4%)
same,Tooth fracture: number of subjects,"100 mg BID, through Week 56",1
same,Type 2 diabetes mellitus: % of subjects,"100 mg BID, through Week 56",(2.4%)
same,Type 2 diabetes mellitus: number of subjects,"100 mg BID, through Week 56",1
same,Urinary tract disorder: % of subjects,"100 mg BID, through Week 56",(2.4%)
same,Urinary tract disorder: number of subjects,"100 mg BID, through Week 56",1
same,Uterine leiomyoma: % of subjects,"100 mg BID, through Week 56",(2.4%)
same,Uterine leiomyoma: number of subjects,"100 mg BID, through Week 56",1
same,Vascular disorders: % of subjects,"100 mg BID, through Week 56",(4.8%)
same,Vascular disorders: number of subjects,"100 mg BID, through Week 56",2
same,Ventricular dysfunction: number of subjects,"100 mg BID, through Week 56",0
same,Vertigo: number of subjects,"100 mg BID, through Week 56",0
same,Vitamin D deficiency: number of subjects,"100 mg BID, through Week 56",0
same,Number of subjects with treatment-emergent AE: Cholelithiasis,[1],1
same,Number of subjects with treatment-emergent AE: Ear and labyrinth disorders,[1],1
same,Number of subjects with treatment-emergent AE: Endocrine disorders,[1],0
same,Number of subjects with treatment-emergent AE: Eye disorders,[1],0
same,Number of subjects with treatment-emergent AE: Eyelid skin dryness,[1],0
same,Number of subjects with treatment-emergent AE: Goiter,[1],0
same,Number of subjects with treatment-emergent AE: Hepatobiliary disorders,[1],1
same,Number of subjects with treatment-emergent AE: Hypertransaminasemia,[1],0
same,Number of subjects with treatment-emergent AE: Immune system disorders,[1],0
same,Number of subjects with treatment-emergent AE: Insomnia,[1],0
same,Number of subjects with treatment-emergent AE: Ocular cyst,[1],0
same,Number of subjects with treatment-emergent AE: Psychiatric disorders,[1],0
same,Number of subjects with treatment-emergent AE: Retinal vein occlusion,[1],0
same,Number of subjects with treatment-emergent AE: Seasonal allergy,[1],0
same,Number of subjects with treatment-emergent AE: Vertigo,[1],1
same,Subjects with treatment-emergent AE: Cholelithiasis (%),[1],(2.5%)
same,Subjects with treatment-emergent AE: Ear and labyrinth disorders (%),[1],(2.5%)
same,Subjects with treatment-emergent AE: Hepatobiliary disorders (%),[1],(2.5%)
same,Subjects with treatment-emergent AE: Vertigo (%),[1],(2.5%)
same,Subjects with adverse event: Alanine aminotransferase increased,[2],0
same,Subjects with adverse event: Aspartate aminotransferase increased,[2],0
same,Subjects with adverse event: Bronchitis,[2],0
same,Subjects with adverse event: Meniscus injury,[2],0
same,Subjects with adverse event: Sinusitis,[2],0
same,Subjects with adverse event: Urinary tract infection,[2],0
same,Subjects with serious adverse event: Cerebrovascular accident,[2],0
same,Subjects with serious adverse event: Coronary artery disease,[2],0
same,Subjects with serious adverse event: Foot deformity,[2],0
same,Subjects with serious adverse event: Ligament injury,[2],0
same,Subjects with serious adverse event: Non-cardiac chest pain,[2],0
same,Subjects with serious adverse event: Tonsillar hypertrophy,[2],0
same,Subjects with serious adverse event: Uterine leiomyoma,[2],0
same,Subjects with serious adverse event: Ventricular dysfunction,[2],0
same,Subjects with AE leading to discontinuation: Alanine aminotransferase increased,"100 mg QD, Week 16-56",0
same,Subjects with AE leading to discontinuation: Aspartate aminotransferase increased,"100 mg QD, Week 16-56",0
same,Subjects with AE leading to discontinuation: Asthenia,"100 mg QD, Week 16-56",0
same,Subjects with AE leading to discontinuation: Gamma-glutamyltransferase increased,"100 mg QD, Week 16-56",0
same,Subjects with AE leading to discontinuation: Insomnia,"100 mg QD, Week 16-56",0
same,Subjects with AE leading to discontinuation: Investigations,"100 mg QD, Week 16-56",0
same,Subjects with AE leading to discontinuation: Proctalgia,"100 mg QD, Week 16-56",0
same,Subjects with AE leading to discontinuation: Psoriasis,"100 mg QD, Week 16-56",0
same,Subjects with AE leading to discontinuation: Psychiatric disorders,"100 mg QD, Week 16-56",0
same,Subjects with AE leading to discontinuation: Skin and subcutaneous tissue disorders,"100 mg QD, Week 16-56",0
same,Subjects with COVID-19 associated AE of interest: SARS-CoV-2 test positive,"100 mg QD, Week 16-56",0
same,Subjects with treatment-emergent AE: Alanine aminotransferase increased,"100 mg QD, Week 16-56",0
same,Subjects with treatment-emergent AE: Aspartate aminotransferase increased,"100 mg QD, Week 16-56",0
